What was measured:
[1] = biological target: T1, ROS tyrosine kinase (Homo sapiens, UniProt P08922); assay: ROS tyrosine kinase inhibitory activity test (ELISA); type: biochemical, humans; details: 25 μM ATP substrate solution, 30° C., one hour
T1 construct: purchased Carna Biosciences, Inc
In short: (§1)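 Human recombinant ROS or JAK2 kinase (added as a 0.25 nM solution) reacted for 1 h at 30 °C in 15 mM Tris-Cl pH 7.5, 0.01% Tween-20, 1 mM DTT with compound from DMSO. Substrate phosphotyrosine was detected by HRP anti-phosphotyrosine antibody and TMB at A450, and IC50 came from non-linear regression.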

[2] = biological target: T2, JAK2 tyrosine kinase (Homo sapiens, UniProt O60674); assay: JAK2 tyrosine kinase inhibitory activity test (ELISA); type: biochemical, humans; details: 25 μM ATP substrate solution, 30° C., one hour
T2 construct: purchased Carna Biosciences, Inc
In short: as §1

[3] = biological target: T3, FIG-ROS/BaF3 cell (Homo sapiens, UniProt P08922); assay: Proliferation inhibitory activity test against FIG-ROS/BaF3 cell; type: cell-based; details: 3 days incubation, cell counting kit; read-out: Proliferation inhibitory activity against FIG-ROS/BaF3 cell (IC50)
T3 construct: fused on or other part: Q9HD26 (Golgi-associated PDZ and coiled-coil motif-containing protein)
Procedure: A BaF3 cell which had been transformed by introducing the FIG-ROS fusion gene (derived from U118MG human glioma cell) (FIG-ROS/BaF3 Cell) was prepared on a culture medium, seeded on a 96-well plate in the number of 1×10^3/100 μL per well, and then allowed to stand in a CO2 incubator (at 37° C. and 5% CO2). As the culture medium, 10% FBS (fetal bovine serum)-incorporated RPMI-1640 was used.
2. Proliferation Inhibitory Activity Test:
A test substance was dissolved in dimethyl sulfoxide (DMSO) to 10 mM and further diluted with DMSO to 100-fold to prepare a 100 μM solution. This was diluted with a 1% DMSO-incorporated medium to concentrations of 10-fold of the concentration to be measured (10,000, 1,000, 100, 10, and 1 nM). Each of the medicine solutions was added at 11 μL per well and mixed. To a control having no medicine added thereto, a 1% DMSO-incorporated medium was added, and incubated in a CO2 incubator (at 37° C. and 5% CO2) for 3 days. After completion of the incubation, the number of live cells was counted using a cell counting kit. First of all, each cell counting kit solution was added at 5 μL per well and mixed, and incubated in a CO2 incubator (at 37° C. and 5% CO2) for 4 hours. An absorbance at 450 nm was measured with a microplate reader (Model 3550, manufactured by BIO-RAD, Benchmark, manufactured by BIO-RAD, or iMARK, manufactured by BIO-RAD) with a reference wavelength of 650 nm.
3. Analysis of Measurement Results:
A non-linear regression analysis was performed for the measured absorbance with an SAS system (SAS Institute Inc.), and a concentration of each of the test substances of inhibiting the cell proliferation at 50% (IC50) was calculated. The proliferation inhibitory activity (IC50, nM) of each of the test substances against the FIG-ROS/BaF3 cell is shown in Table 9.

T3 sequence (P08922 whole entry, stated change not applied, the tested form may be a part): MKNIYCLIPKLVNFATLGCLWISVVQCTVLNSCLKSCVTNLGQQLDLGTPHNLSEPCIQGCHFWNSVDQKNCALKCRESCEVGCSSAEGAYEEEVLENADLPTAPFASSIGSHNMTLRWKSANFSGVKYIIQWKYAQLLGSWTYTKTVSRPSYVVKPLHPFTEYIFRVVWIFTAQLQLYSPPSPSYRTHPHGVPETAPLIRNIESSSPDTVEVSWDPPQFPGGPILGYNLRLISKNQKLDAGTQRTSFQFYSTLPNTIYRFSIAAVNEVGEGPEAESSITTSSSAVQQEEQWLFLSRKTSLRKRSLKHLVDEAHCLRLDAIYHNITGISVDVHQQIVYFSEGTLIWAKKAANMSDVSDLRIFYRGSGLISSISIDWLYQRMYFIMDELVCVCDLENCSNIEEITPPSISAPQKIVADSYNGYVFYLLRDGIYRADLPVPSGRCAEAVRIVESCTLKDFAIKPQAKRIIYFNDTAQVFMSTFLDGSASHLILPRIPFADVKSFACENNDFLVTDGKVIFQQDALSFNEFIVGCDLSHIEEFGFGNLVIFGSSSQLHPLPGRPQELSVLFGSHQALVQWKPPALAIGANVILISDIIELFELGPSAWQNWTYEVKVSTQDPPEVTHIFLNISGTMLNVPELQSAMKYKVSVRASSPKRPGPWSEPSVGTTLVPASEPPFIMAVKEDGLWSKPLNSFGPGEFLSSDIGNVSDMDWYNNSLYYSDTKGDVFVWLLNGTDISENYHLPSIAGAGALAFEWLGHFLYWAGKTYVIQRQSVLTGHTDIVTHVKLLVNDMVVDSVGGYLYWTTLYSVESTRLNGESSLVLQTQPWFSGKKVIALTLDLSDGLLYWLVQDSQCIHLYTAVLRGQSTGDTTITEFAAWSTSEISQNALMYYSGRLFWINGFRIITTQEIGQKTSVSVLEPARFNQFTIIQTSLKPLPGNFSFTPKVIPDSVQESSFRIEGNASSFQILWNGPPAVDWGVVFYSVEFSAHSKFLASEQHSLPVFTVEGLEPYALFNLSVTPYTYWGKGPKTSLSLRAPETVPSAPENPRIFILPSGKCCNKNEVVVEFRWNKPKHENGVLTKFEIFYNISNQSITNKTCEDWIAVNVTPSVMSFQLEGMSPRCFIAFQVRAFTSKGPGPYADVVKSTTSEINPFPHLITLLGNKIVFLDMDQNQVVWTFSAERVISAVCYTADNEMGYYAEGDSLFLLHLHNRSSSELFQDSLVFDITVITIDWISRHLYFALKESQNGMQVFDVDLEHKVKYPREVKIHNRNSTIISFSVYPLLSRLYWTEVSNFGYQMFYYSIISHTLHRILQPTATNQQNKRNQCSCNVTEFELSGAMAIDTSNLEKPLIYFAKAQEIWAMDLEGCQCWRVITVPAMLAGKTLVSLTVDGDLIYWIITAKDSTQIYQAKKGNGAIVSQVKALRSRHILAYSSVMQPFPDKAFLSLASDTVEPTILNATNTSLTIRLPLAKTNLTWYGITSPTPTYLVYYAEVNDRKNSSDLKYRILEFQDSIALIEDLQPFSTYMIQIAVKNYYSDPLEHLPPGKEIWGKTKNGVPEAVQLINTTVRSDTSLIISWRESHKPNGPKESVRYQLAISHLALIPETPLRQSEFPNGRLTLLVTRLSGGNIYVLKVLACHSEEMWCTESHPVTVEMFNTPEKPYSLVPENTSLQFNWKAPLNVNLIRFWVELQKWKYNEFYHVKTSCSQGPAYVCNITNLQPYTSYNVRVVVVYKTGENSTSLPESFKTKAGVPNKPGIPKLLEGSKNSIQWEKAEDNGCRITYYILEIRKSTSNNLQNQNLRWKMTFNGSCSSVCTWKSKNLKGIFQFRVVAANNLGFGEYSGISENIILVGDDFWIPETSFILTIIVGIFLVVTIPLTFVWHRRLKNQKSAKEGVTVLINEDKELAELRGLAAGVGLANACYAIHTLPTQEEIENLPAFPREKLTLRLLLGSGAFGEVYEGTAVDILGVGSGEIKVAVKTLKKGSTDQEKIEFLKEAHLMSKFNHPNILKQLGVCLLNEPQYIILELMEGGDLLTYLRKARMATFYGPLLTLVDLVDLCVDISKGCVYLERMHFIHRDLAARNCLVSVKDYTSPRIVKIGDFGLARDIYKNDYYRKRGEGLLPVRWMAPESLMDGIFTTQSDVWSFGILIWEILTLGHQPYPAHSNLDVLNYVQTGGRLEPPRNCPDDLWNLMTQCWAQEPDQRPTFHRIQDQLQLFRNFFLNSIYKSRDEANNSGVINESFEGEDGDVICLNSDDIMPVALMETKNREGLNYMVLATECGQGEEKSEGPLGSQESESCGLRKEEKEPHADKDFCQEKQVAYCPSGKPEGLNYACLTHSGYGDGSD
T2 sequence (O60674 whole entry): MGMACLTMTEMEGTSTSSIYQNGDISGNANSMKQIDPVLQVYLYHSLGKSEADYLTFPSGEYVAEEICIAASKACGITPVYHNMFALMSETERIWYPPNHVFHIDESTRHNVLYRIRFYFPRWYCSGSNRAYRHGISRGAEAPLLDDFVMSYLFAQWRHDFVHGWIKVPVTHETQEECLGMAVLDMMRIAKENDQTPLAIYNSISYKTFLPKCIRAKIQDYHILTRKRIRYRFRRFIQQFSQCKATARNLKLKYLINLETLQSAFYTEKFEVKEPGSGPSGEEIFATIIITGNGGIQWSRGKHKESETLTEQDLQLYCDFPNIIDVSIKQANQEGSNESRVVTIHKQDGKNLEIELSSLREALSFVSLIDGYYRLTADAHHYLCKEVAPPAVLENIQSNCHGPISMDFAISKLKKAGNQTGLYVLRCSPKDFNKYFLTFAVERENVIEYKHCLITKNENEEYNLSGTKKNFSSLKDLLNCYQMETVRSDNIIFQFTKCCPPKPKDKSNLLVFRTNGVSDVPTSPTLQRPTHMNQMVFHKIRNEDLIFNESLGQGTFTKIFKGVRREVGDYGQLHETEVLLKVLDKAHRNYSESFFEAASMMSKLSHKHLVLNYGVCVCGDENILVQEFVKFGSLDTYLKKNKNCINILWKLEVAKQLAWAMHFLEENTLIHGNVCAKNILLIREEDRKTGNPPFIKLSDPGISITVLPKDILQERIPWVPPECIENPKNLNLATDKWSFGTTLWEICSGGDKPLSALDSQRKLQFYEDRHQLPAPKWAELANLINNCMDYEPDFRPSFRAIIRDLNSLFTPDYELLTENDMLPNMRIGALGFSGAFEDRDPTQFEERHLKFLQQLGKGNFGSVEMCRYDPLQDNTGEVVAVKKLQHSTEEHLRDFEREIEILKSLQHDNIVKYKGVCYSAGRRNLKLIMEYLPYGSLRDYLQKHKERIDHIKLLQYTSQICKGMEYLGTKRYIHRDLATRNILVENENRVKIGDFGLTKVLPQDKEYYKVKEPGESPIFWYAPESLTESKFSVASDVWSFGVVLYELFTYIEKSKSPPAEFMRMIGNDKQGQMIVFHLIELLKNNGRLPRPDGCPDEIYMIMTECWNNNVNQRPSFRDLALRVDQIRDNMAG

Compound	IC50 [1]	IC50 [2]	GI50 [3]
CCOC(=O)c1cnc(Nc2cncc(N3CCCC3c3ccc(C)cc3)n2)s1 (stereo not drawn) [Example 51, Ethyl 2-({6-[2-(4-methylphenyl)pyrrolidin-1-yl]pyrazin-2-yl}amino)-1,3-thiazole-5-carboxylate]	88 nM	930 nM	160 nM
Cc1ccc([C@@H]2CCCN2c2nc(Nc3ncc(C#N)s3)c(C)c(C(=O)NC3CCN(C)CC3)n2)cc1 [Example 54, 6-[(5-Cyano-1,3-thiazol-2-yl)amino]-5-methyl-2-[(2S)-2-(4-methylphenyl)pyrrolidin-1-yl]-N-(l-methylpiperidin-4-yl)pyrimidine-4-carboxamide]	3.9 nM	190 nM	0.4 nM
CNC(=O)c1cc(N2CCC[C@H]2c2ccc(C)cc2)nc(Nc2ncc(C#N)s2)c1C [Example 55, 2-[(5-Cyano-1,3-thiazol-2-yl)amino]-N,3-dimethyl-6-[(2S)-2-(4-methylphenyl)pyrrolidin-1-yl]pyridine-4-carboxamide]	0.6 nM	24 nM	0.3 nM
COc1c(C)nc(N2CCC[C@H]2c2ccc(C)cc2)nc1Nc1ncc(F)s1 [Example 56, N-(5-Fluoro-1,3-thiazol-2-yl)-5-methoxy-6-methyl-2-[(2S)-2-(4-methylphenyl)pyrrolidin-1-yl]pyrimidine-4-amine]	6.7 nM	> 1000 nM	8.2 nM
CCc1c(COC)nc(N2CCC[C@H]2c2ccc(C)cc2)nc1Nc1ncc(C#N)s1 [Example 57, 2-({5-Ethyl-6-(methoxymethyl)-2-[(2S)-2-(4-methylphenyl)pyrrolidin-1-yl]pyrimidin-4-yl}amino)-1,3-thiazole-5-carbo nitrile]	2.7 nM	> 1000 nM	1.8 nM
COc1c(Nc2ncc(C#N)s2)nc(N2CCC[C@H]2c2ccc(C)cc2)nc1-c1cnn(CCO)c1 [Example 59, 2-({6-[1-(2-Hydroxyethyl)-1H-pyrazol-4-yl]-5-methoxy-2-[(2S)-2-(4-methylphenyl)pyrrolidin-1-yl]pyrimidin-4-yl}amino)-1,3-thiazole-5-carbonitrile]	1.5 nM	190 nM	1.3 nM
COc1c(Nc2ncc(C#N)s2)nc(N2CCC[C@H]2c2ccc(C)cc2)nc1-c1cnc(C)nc1 [Example 60, 2-({5-Methoxy-2′-methyl-2-[(2S)-2-(4-methylphenyl)pyrrolidin-1-yl]-4,5′-bipyrimidin-6-yl}amino)-1,3-thiazole-5-carbonitrile]	2.3 nM	740 nM	2.9 nM
COc1c(Nc2ncns2)nc(N2CCC[C@H]2c2ccc(C)cc2)nc1-c1cnn(CCO)c1 [Example 61, 2-(4-{5-Methoxy-2-[(2S)-2-(4-methylphenyl)pyrrolidin-1-yl]-6-(1,2,4-thiadiazol-5-ylamino)pyrimidin-4-yl}-1H-pyrazol-1-yl)ethanol]	2.5 nM	490 nM	1 nM
COc1c(Nc2ncc(C#N)s2)nc(N2CCC[C@H]2c2ccc(C)cc2)nc1C(=O)N[C@H]1CC[C@H](O)CC1 [Example 62, 6-[(5-Cyano-1,3-thiazol-2-yl)amino]-N-(trans-4-hydroxycyclohexyl)-5-methoxy-2-[(2S)-2-(4-methylphenyl)pyrrolidin-1-yl]pyrimidine-4-carboxamide]	2.1 nM	> 1000 nM	2.6 nM
COc1c(Nc2ncc(C#N)s2)nc(N2CCC[C@H]2c2ccc(C)cc2)nc1C(=O)N[C@H]1CC[C@H](C(=O)O)CC1 [Example 63, Trans-4-[({6-[(5-cyano-1,3-thiazol-2-yl)amino]-5-methoxy-2-[(2S)-2-(4-methylphenyl)pyrrolidin-1-yl]pyrimidin-4-yl}carbonyl)amino]cyclohexanecarboxylic acid]	0.3 nM	120 nM	3.5 nM
